Test results: PubChem BioAssay AID256 (DTP/NCI, 2004)
Inconclusive results and toxic doses are left out. How the source made its calls: active means survival T/C of 150% or more; inactive means T/C below 125% in these data.

Tested on: CD2F1 mice, L1210 leukemia ip, survival T/C
Assay: NCI In Vivo Anticancer Drug Screen. Data for tumor model L1210 Leukemia (intraperitoneal) in CD2F1 (CDF1) mice
Details: endpoint: mean survival time, higher = longer survival
Summary of the method: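 In this screen, transplantable tumors were grown in mice given either the compound or its vehicle. Results were expressed as the treated measurement relative to the control measurement.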

[1] = dose: 75.0 mg/kg/injection, schedule: Q01DX001 (ip), vehicle: saline
[2] = dose: 150.0 mg/kg/injection, schedule: Q01DX001 (ip), vehicle: saline
[3] = dose: 100.0 mg/kg/injection, schedule: Q01DX009 (ip), vehicle: saline with Tween-80
[4] = dose: 200.0 mg/kg/injection, schedule: Q01DX009 (ip), vehicle: saline with Tween-80
[5] = dose: 400.0 mg/kg/injection, schedule: Q01DX009 (ip), vehicle: saline with Tween-80

Measured: T/C

CC1(C2CCN(Cc3ccccc3)CC2)OCCO1
inactive: [1] 101 % of control | [2] 97 % of control

O=[N+]([O-])c1ccc(O)c(CCl)c1
inactive: [1] 102 % of control | [2] 93 % of control | dose: 300.0 mg/kg/injection, schedule: Q01DX001 (ip), vehicle: saline 96 % of control

CCCN(CCC)CCCC#N
inactive: dose: 50.0 mg/kg/injection, schedule: Q01DX009 (ip), vehicle: saline with Tween-80 100 % of control | [3] 101 % of control

CCOC(=O)Nc1cc(NC(=O)OCC)cc([N+](=O)[O-])c1
inactive: [3] 98 % of control | [4] 98 % of control | [5] 106 % of control

Cc1ccc(S(=O)(=O)OC(c2ccc(Cl)cc2)C(F)(F)F)cc1 (stereo unspecified)
inactive: dose: 100.0 mg/kg/injection, schedule: Q01DX001 (ip), vehicle: saline with Tween-80 101 % of control | [3] 93 % of control | dose: 200.0 mg/kg/injection, schedule: Q01DX001 (ip), vehicle: saline with Tween-80 95 % of control | [4] 86 % of control | dose: 400.0 mg/kg/injection, schedule: Q01DX001 (ip), vehicle: saline with Tween-80 101 % of control | [5] 87 % of control

CCOC(=O)C1C(=O)N(c2ccccc2)C(=O)N1c1ccccc1 (stereo unspecified)
inactive: dose: 12.5 mg/kg/injection, schedule: Q01DX009 (ip), vehicle: other 89 % of control | dose: 25.0 mg/kg/injection, schedule: Q01DX009 (ip), vehicle: other 89 % of control | dose: 50.0 mg/kg/injection, schedule: Q01DX009 (ip), vehicle: other 103 % of control | dose: 100.0 mg/kg/injection, schedule: Q01DX009 (ip), vehicle: other 93 % of control | dose: 200.0 mg/kg/injection, schedule: Q01DX009 (ip), vehicle: other 98 % of control

CCCCCCCCCCCCCCCC(=O)N(CCCN(C)C)C1CCC(N(CCCN(C)C)C(=O)CCCCCCCCCCCCCCC)CC1 (stereo unspecified)
inactive: dose: 12.5 mg/kg/injection, schedule: Q01DX009 (ip), vehicle: saline with Tween-80 101 % of control | dose: 12.5 mg/kg/injection, schedule: Q04DX003 (ip), vehicle: saline with Tween-80 93 % of control | dose: 25.0 mg/kg/injection, schedule: Q04DX003 (ip), vehicle: saline with Tween-80 111 % of control | dose: 50.0 mg/kg/injection, schedule: Q04DX003 (ip), vehicle: saline with Tween-80 102 % of control

Cc1cc(O)c(O)c(C(C)(C)CC(C)(C)C)c1
inactive: dose: 12.5 mg/kg/injection, schedule: Q01DX009 (ip), vehicle: saline + alcohol 100 % of control | dose: 25.0 mg/kg/injection, schedule: Q01DX009 (ip), vehicle: saline + alcohol 97 % of control | dose: 50.0 mg/kg/injection, schedule: Q01DX009 (ip), vehicle: saline + alcohol 103 % of control | dose: 100.0 mg/kg/injection, schedule: Q04DX003 (ip), vehicle: saline + alcohol 105 % of control | dose: 200.0 mg/kg/injection, schedule: Q04DX003 (ip), vehicle: saline + alcohol 103 % of control | dose: 400.0 mg/kg/injection, schedule: Q04DX003 (ip), vehicle: saline + alcohol 100 % of control
